Read-outs that look alike come from different tables or passages of the source.
Test system: Colo205 cells
Assay type: cell-based, human
[1] = selinexor-treated nucleus vs MYXV + selinexor-treated nucleus

SMILES: O=C(/C=C\n1cnc(-c2cc(C(F)(F)F)cc(C(F)(F)F)c2)n1)NNc1cnccn1 [selinexor]
- Differential protein expression, NPAT (Q14207, selinexor-treated cytoplasm vs control cytoplasm): 0.01
- Differential protein expression, DSC3 (Q14574, selinexor-treated cytoplasm vs control cytoplasm): 2.069
- Differential protein expression, NCOA6 (Q14686, selinexor-treated cytoplasm vs control cytoplasm): 0.01
- Differential protein expression, SETDB1 (Q15047, selinexor-treated cytoplasm vs control cytoplasm): 0.01
- Differential protein expression, RRS1 (Q15050, selinexor-treated cytoplasm vs control cytoplasm): 2.155
- Differential protein expression, TOMM20 (Q15388, selinexor-treated cytoplasm vs control cytoplasm): 2.862
- Differential protein expression, CDSN (Q15517, selinexor-treated cytoplasm vs control cytoplasm): 3.988
- Differential protein expression, TAF7 (Q15545, selinexor-treated cytoplasm vs control cytoplasm): 0.402
- Differential protein expression, TAF1C (Q15572, selinexor-treated cytoplasm vs control cytoplasm): 100
- Differential protein expression, ELF2 (Q15723, selinexor-treated cytoplasm vs control cytoplasm): 0.01
- Differential protein expression, M11L (Q85295, selinexor-treated cytoplasm vs control cytoplasm): 4.074
- Differential protein expression, MYO18A (Q92614, selinexor-treated cytoplasm vs control cytoplasm): 2.026
- Differential protein expression, USP6NL (Q92738, selinexor-treated cytoplasm vs control cytoplasm): 100
- Differential protein expression, TAF15 (Q92804, selinexor-treated cytoplasm vs control cytoplasm): 2.706
- Differential protein expression, KAT5 (Q92993, selinexor-treated cytoplasm vs control cytoplasm): 7.08
- Differential protein expression, TEAD3 (Q99594, selinexor-treated cytoplasm vs control cytoplasm): 100
- Differential protein expression, SLC29A1 (Q99808, selinexor-treated cytoplasm vs control cytoplasm): 0.406
- Differential protein expression, selinexor-treated nucleus vs control nucleus (protein AAAS (Q9NRG9)): 0.477
- Differential protein expression, selinexor-treated nucleus vs control nucleus (protein ABHD10 (Q9NUJ1)): 2.289
- Differential protein expression, selinexor-treated nucleus vs control nucleus (protein ACAD10 (Q6JQN1)): 2.239
- Differential protein expression, selinexor-treated nucleus vs control nucleus (protein BRIX1 (Q8TDN6)): 0.475
- Differential protein expression, selinexor-treated nucleus vs control nucleus (protein CALML5 (Q9NZT1)): 2.328
- Differential protein expression, selinexor-treated nucleus vs control nucleus (protein CASP9 (P55211)): 100
- Differential protein expression, selinexor-treated nucleus vs control nucleus (protein CDK3 (Q00526)): 0.472
- Differential protein expression, selinexor-treated nucleus vs control nucleus (protein CHMP2B (Q9UQN3)): 2.092
- Differential protein expression, selinexor-treated nucleus vs control nucleus (protein CIB1 (Q99828)): 0.474
- Differential protein expression, selinexor-treated nucleus vs control nucleus (protein CIT (O14578)): 0.498
- Differential protein expression, selinexor-treated nucleus vs control nucleus (protein COA1 (Q9GZY4)): 0.481
- Differential protein expression, selinexor-treated nucleus vs control nucleus (protein CSTA (P01040)): 2.196
- Differential protein expression, selinexor-treated nucleus vs control nucleus (protein ECHDC1 (Q9NTX5)): 2.716
- Differential protein expression, selinexor-treated nucleus vs control nucleus (protein EFNB1 (P98172)): 100
- Differential protein expression, selinexor-treated nucleus vs control nucleus (protein ERLIN2 (O94905)): 0.498
- Differential protein expression, selinexor-treated nucleus vs control nucleus (protein F5 (P12259)): 100
- Differential protein expression, selinexor-treated nucleus vs control nucleus (protein FBLIM1 (Q8WUP2)): 0.481
- Differential protein expression, selinexor-treated nucleus vs control nucleus (protein FHIP1B (Q8N612)): 100
- Differential protein expression, selinexor-treated nucleus vs control nucleus (protein FN3K (Q9H479)): 2.007
- Differential protein expression, selinexor-treated nucleus vs control nucleus (protein FOS (P01100)): 2.044
- Differential protein expression, selinexor-treated nucleus vs control nucleus (protein FXR1 (Q9UM11)): 2.17
- Differential protein expression, selinexor-treated nucleus vs control nucleus (protein GEMIN5 (Q8TEQ6)): 0.496
- Differential protein expression, selinexor-treated nucleus vs control nucleus (protein GEMIN6 (Q8WXD5)): 0.473
- Differential protein expression, selinexor-treated nucleus vs control nucleus (protein GNL2 (Q13823)): 2.38
- Differential protein expression, selinexor-treated nucleus vs control nucleus (protein H2AC1 (Q96QV6)): 2.215
- Differential protein expression, selinexor-treated nucleus vs control nucleus (protein H2AC4 (P04908)): 2.544
- Differential protein expression, selinexor-treated nucleus vs control nucleus (protein H2AC6 (Q93077)): 2.544
- Differential protein expression, selinexor-treated nucleus vs control nucleus (protein H2AC18 (Q6FI13)): 2.322
- Differential protein expression, selinexor-treated nucleus vs control nucleus (protein H2AC20 (Q16777)): 2.322
- Differential protein expression, selinexor-treated nucleus vs control nucleus (protein H2AC21 (Q8IUE6)): 2.215
- Differential protein expression, selinexor-treated nucleus vs control nucleus (protein H2AC25 (Q7L7L0)): 2.544
- Differential protein expression, selinexor-treated nucleus vs control nucleus (protein H2AX (P16104)): 2.215
- Differential protein expression, selinexor-treated nucleus vs control nucleus (protein H2BK1 (A0A2R8Y619)): 2.69
- Differential protein expression, selinexor-treated nucleus vs control nucleus (protein H3-3A (P84243)): 2.584
- Differential protein expression, selinexor-treated nucleus vs control nucleus (protein HK1 (P19367)): 0.496
- Differential protein expression, selinexor-treated nucleus vs control nucleus (protein HNRNPA1L2 (Q32P51)): 2.623
- Differential protein expression, selinexor-treated nucleus vs control nucleus (protein KIF23 (Q02241)): 0.492
- Differential protein expression, selinexor-treated nucleus vs control nucleus (protein KRT1 (P04264)): 2.317
- Differential protein expression, selinexor-treated nucleus vs control nucleus (protein KRT7 (P08729)): 2.576
- Differential protein expression, selinexor-treated nucleus vs control nucleus (protein KRT14 (P02533)): 2.157
- Differential protein expression, selinexor-treated nucleus vs control nucleus (protein KRT24 (Q2M2I5)): 2.19
- Differential protein expression, selinexor-treated nucleus vs control nucleus (protein KRT25 (Q7Z3Z0)): 2.158
- Differential protein expression, selinexor-treated nucleus vs control nucleus (protein KRT27 (Q7Z3Y8)): 2.158
- Differential protein expression, selinexor-treated nucleus vs control nucleus (protein KRT28 (Q7Z3Y7)): 2.058
- Differential protein expression, selinexor-treated nucleus vs control nucleus (protein LGALS7 (P47929)): 2.013
- Differential protein expression, selinexor-treated nucleus vs control nucleus (protein LRRC58 (Q96CX6)): 2.747
- Differential protein expression, selinexor-treated nucleus vs control nucleus (protein MAFF (Q9ULX9)): 2.133
- Differential protein expression, selinexor-treated nucleus vs control nucleus (protein MAGED2 (Q9UNF1)): 2.271
- Differential protein expression, selinexor-treated nucleus vs control nucleus (protein MAN1A1 (P33908)): 100
- Differential protein expression, selinexor-treated nucleus vs control nucleus (protein MICOS13 (Q5XKP0)): 0.483
- Differential protein expression, selinexor-treated nucleus vs control nucleus (protein MTX1 (Q13505)): 0.499
- Differential protein expression, selinexor-treated nucleus vs control nucleus (protein NDE1 (Q9NXR1)): 0.484
- Differential protein expression, selinexor-treated nucleus vs control nucleus (protein NDEL1 (Q9GZM8)): 0.481
- Differential protein expression, selinexor-treated nucleus vs control nucleus (protein NDUFA5 (Q16718)): 0.488
- Differential protein expression, selinexor-treated nucleus vs control nucleus (protein NDUFA11 (Q86Y39)): 0.492
- Differential protein expression, selinexor-treated nucleus vs control nucleus (protein NDUFS3 (075489)): 0.478
- Differential protein expression, selinexor-treated nucleus vs control nucleus (protein NDUFS8 (O00217)): 0.487
- Differential protein expression, selinexor-treated nucleus vs control nucleus (protein NFAT5 (O94916)): 2.586
- Differential protein expression, selinexor-treated nucleus vs control nucleus (protein NUDT3 (O95989)): 100
- Differential protein expression, selinexor-treated nucleus vs control nucleus (protein NXN (Q6DKJ4)): 100
- Differential protein expression, selinexor-treated nucleus vs control nucleus (protein OAS1 (P00973)): 2.45
- Differential protein expression, selinexor-treated nucleus vs control nucleus (protein OCIAD2 (Q56VL3)): 0.5
- Differential protein expression, selinexor-treated nucleus vs control nucleus (protein PAN2 (Q504Q3)): 2.108
- Differential protein expression, selinexor-treated nucleus vs control nucleus (protein PAN3 (Q58A45)): 2.073
- Differential protein expression, selinexor-treated nucleus vs control nucleus (protein PANK1 (Q8TE04)): 100
- Differential protein expression, selinexor-treated nucleus vs control nucleus (protein PATL1 (Q86TB9)): 0.487
- Differential protein expression, selinexor-treated nucleus vs control nucleus (protein PAXX (Q9BUH6)): 2.321
- Differential protein expression, selinexor-treated nucleus vs control nucleus (protein PHF19 (Q5T6S3)): 0.477
- Differential protein expression, selinexor-treated nucleus vs control nucleus (protein PNO1 (Q9NRX1)): 2.639
- Differential protein expression, selinexor-treated nucleus vs control nucleus (protein POLR2B (P30876)): 0.486
- Differential protein expression, selinexor-treated nucleus vs control nucleus (protein PRDX4 (Q13162)): 2.477
- Differential protein expression, selinexor-treated nucleus vs control nucleus (protein RBL2 (Q08999)): 2.063
- Differential protein expression, selinexor-treated nucleus vs control nucleus (protein ROCK1 (Q13464)): 2.201
- Differential protein expression, selinexor-treated nucleus vs control nucleus (protein RPL10 (P27635)): 0.483
- Differential protein expression, selinexor-treated nucleus vs control nucleus (protein RPL10L (Q96L21)): 0.473
- Differential protein expression, selinexor-treated nucleus vs control nucleus (protein RPLP1 (P05386)): 0.472
- Differential protein expression, selinexor-treated nucleus vs control nucleus (protein RRM1 (P23921)): 0.488
- Differential protein expression, selinexor-treated nucleus vs control nucleus (protein RTN4 (Q9NQC3)): 0.491
- Differential protein expression, selinexor-treated nucleus vs control nucleus (protein S100A8 (P05109)): 2.396
- Differential protein expression, selinexor-treated nucleus vs control nucleus (protein SDAD1 (Q9NVU7)): 2.021
- Differential protein expression, selinexor-treated nucleus vs control nucleus (protein SDCBP2 (Q9H190)): 2.735
- Differential protein expression, selinexor-treated nucleus vs control nucleus (protein SFXN2 (Q96NB2)): 0.478
- Differential protein expression, selinexor-treated nucleus vs control nucleus (protein SFXN5 (Q8TD22)): 0.48
- Differential protein expression, selinexor-treated nucleus vs control nucleus (protein SLC12A7 (Q9Y666)): 0.496
- Differential protein expression, selinexor-treated nucleus vs control nucleus (protein SLC25A11 (Q02978)): 0.496
- Differential protein expression, selinexor-treated nucleus vs control nucleus (protein SLC25A12 (O75746)): 0.483
- Differential protein expression, selinexor-treated nucleus vs control nucleus (protein SLC25A17 (O43808)): 0.484
- Differential protein expression, selinexor-treated nucleus vs control nucleus (protein SLC25A35 (Q3KQZ1)): 0.474
- Differential protein expression, selinexor-treated nucleus vs control nucleus (protein SPG7 (Q9UQ90)): 0.481
- Differential protein expression, selinexor-treated nucleus vs control nucleus (protein TDRKH (Q9Y2W6)): 0.492
- Differential protein expression, selinexor-treated nucleus vs control nucleus (protein TEAD2 (Q15562)): 0.487
- Differential protein expression, selinexor-treated nucleus vs control nucleus (protein TEAD4 (Q15561)): 0.494
- Differential protein expression, selinexor-treated nucleus vs control nucleus (protein TMA7 (Q9Y2S6)): 2.251
- Differential protein expression, selinexor-treated nucleus vs control nucleus (protein TOMM20 (Q15388)): 0.497
- Differential protein expression, selinexor-treated nucleus vs control nucleus (protein TPPP3 (Q9BW30)): 2.549
- Differential protein expression, selinexor-treated nucleus vs control nucleus (protein UQCR10 (Q9UDW1)): 0.477
- Differential protein expression, selinexor-treated nucleus vs control nucleus (protein VCPIP1 (Q96JH7)): 2.057
- Differential protein expression, selinexor-treated nucleus vs control nucleus (protein YBX1 (P67809)): 0.477
- Differential protein expression, selinexor-treated nucleus vs control nucleus (protein m090L (D2WN26)): 100
- Differential protein expression, selinexor-treated nucleus vs control nucleus (protein m093L (Q9Q8K7)): 0.498
- Differential protein expression B2CWA6 m003.1R [1]: 0.145
- Differential protein expression B2CWA8 [1]: 0.122
- Differential protein expression B2CWB0 [1]: 0.01
- Differential protein expression B2CWB2 [1]: 0.055
- Differential protein expression B2CWB4 m008.1L [1]: 0.045
- Differential protein expression B2CWB5 [1]: 0.036
- Differential protein expression B2CWC0 [1]: 0.092
- Differential protein expression B2CWC1 m015L [1]: 0.04
- Differential protein expression B2CWC6 m020L [1]: 0.191
- Differential protein expression B2CWC8 [1]: 0.058
- Differential protein expression B2CWD4 m027L [1]: 0.045
- Differential protein expression B2CWD6 m029L [1]: 0.023
- Differential protein expression B2CWD8 [1]: 0.011
- Differential protein expression B2CWE0 m033R [1]: 0.01
- Differential protein expression B2CWE1 [1]: 0.047
- Differential protein expression B2CWE3 [1]: 0.064
- Differential protein expression B2CWF3 m046L [1]: 0.111
- Differential protein expression B2CWF4 m047R [1]: 0.039
- Differential protein expression B2CWF6 [1]: 0.051

— US20250249056A1, “CANCER THERAPIES COMPRISING A NUCLEAR EXPORT INHIBITOR AND AN ONCOLYTIC VIRUS” (priority 2022, published 2025)
